Read-outs that look alike come from different tables or passages of the source.
Key:
various enzymes [1] = biological target: various enzymes (Homo sapiens, UniProt Q9NYY3); conditions: PLK2; 1 uM
Method: (§1) Ambit profiling from Eurofins (formerly Discoverx) was conducted in accordance with the manufacturer's instructions.

various enzymes [2] = biological target: T1, various enzymes (Homo sapiens, UniProt Q13873); conditions: BMPR2; 1 uM
T1 sequence (Q13873 27-1038): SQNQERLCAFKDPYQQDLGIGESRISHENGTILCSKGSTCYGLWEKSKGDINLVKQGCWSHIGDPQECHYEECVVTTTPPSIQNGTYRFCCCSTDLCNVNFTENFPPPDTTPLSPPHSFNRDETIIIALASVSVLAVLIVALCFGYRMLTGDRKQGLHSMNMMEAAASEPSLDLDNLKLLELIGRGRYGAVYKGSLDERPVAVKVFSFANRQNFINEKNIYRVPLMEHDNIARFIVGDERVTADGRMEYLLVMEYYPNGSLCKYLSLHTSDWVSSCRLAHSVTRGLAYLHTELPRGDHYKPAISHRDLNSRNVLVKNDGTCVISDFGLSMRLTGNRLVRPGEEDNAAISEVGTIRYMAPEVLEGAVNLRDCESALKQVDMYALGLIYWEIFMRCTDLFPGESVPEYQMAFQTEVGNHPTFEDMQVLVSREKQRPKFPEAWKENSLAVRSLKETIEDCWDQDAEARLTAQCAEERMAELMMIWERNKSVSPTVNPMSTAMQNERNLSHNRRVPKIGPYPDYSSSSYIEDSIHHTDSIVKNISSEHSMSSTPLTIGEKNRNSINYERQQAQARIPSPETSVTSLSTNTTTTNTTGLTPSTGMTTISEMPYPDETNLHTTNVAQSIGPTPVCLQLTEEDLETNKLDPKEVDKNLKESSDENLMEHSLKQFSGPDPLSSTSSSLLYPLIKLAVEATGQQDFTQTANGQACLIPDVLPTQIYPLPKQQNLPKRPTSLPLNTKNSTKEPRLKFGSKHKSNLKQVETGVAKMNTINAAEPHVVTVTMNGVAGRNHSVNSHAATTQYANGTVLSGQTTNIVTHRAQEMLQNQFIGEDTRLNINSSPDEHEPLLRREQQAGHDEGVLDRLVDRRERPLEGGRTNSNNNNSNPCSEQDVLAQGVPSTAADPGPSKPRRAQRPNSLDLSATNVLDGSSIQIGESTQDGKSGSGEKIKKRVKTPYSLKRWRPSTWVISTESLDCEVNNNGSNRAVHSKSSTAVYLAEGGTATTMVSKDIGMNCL
Method: as §1

various enzymes [3] = biological target: various enzymes (Homo sapiens, UniProt P08581); conditions: MET; 1 uM
Method: as §1

various enzymes [4] = biological target: various enzymes (Homo sapiens, UniProt P45983); conditions: JNK1; 1 uM
Method: as §1

various enzymes [5] = biological target: various enzymes (Homo sapiens, UniProt P29597); conditions: 1 uM
Method: as §1

various enzymes [6] = biological target: various enzymes (Homo sapiens, UniProt P00533, T790M)
Method: as §1

various enzymes [7] = biological target: various enzymes (Homo sapiens, UniProt Q9BWU1); conditions: CDK11; 1 uM
Method: as §1

various enzymes [8] = biological target: various enzymes (Homo sapiens, UniProt P00533); conditions: EGFR; 1 uM
Method: as §1

various enzymes [9] = biological target: T2, various enzymes (Homo sapiens, UniProt Q6PHR2); conditions: ULK3; 1 uM
T2 sequence (Q6PHR2 1-472): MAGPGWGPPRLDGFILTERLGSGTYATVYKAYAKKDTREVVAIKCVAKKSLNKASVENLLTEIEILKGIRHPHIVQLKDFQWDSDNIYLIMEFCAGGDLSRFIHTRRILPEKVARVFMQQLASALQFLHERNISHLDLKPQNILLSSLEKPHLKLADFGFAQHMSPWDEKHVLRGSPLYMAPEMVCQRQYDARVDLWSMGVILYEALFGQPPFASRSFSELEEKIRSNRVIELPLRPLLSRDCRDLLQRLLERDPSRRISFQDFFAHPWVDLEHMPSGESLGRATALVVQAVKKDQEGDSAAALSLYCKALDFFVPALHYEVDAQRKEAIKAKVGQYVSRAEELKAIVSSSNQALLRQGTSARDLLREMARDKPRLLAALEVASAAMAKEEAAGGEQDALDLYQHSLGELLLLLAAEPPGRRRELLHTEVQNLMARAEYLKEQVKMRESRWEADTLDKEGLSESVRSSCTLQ
Method: as §1

Chain of various enzymes (Homo sapiens, UniProt P29597) (P29597 whole entry): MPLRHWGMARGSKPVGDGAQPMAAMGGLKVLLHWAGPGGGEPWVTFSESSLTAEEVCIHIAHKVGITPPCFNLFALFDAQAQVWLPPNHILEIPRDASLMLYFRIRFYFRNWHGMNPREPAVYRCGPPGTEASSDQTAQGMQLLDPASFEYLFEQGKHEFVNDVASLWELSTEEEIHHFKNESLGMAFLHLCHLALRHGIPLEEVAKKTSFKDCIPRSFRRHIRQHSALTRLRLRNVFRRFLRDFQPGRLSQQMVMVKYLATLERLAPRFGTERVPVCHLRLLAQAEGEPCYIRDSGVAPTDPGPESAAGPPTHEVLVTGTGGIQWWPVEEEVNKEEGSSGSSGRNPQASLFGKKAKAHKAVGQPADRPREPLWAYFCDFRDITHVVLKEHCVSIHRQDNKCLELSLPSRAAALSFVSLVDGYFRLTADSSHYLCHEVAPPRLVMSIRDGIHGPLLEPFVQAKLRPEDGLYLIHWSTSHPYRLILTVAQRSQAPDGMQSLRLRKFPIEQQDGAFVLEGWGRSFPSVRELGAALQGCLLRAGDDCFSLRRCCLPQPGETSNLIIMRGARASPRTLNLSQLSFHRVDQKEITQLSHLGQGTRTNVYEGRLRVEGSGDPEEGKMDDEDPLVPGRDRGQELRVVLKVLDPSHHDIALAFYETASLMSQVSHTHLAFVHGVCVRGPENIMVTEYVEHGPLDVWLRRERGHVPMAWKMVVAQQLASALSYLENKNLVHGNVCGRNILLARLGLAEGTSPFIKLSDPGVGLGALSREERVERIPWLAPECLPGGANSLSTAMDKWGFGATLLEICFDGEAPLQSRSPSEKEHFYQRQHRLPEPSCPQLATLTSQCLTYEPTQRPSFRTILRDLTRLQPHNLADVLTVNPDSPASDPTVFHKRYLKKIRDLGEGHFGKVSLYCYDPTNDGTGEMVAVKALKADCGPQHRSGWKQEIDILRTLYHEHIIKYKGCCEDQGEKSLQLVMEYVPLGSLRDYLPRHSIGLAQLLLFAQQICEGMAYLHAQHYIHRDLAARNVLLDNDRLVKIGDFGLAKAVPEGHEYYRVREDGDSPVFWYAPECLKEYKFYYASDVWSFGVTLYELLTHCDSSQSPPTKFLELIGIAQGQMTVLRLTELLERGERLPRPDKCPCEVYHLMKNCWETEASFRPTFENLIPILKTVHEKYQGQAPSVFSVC
Chain of various enzymes (Homo sapiens, UniProt Q9NYY3) (Q9NYY3 whole entry): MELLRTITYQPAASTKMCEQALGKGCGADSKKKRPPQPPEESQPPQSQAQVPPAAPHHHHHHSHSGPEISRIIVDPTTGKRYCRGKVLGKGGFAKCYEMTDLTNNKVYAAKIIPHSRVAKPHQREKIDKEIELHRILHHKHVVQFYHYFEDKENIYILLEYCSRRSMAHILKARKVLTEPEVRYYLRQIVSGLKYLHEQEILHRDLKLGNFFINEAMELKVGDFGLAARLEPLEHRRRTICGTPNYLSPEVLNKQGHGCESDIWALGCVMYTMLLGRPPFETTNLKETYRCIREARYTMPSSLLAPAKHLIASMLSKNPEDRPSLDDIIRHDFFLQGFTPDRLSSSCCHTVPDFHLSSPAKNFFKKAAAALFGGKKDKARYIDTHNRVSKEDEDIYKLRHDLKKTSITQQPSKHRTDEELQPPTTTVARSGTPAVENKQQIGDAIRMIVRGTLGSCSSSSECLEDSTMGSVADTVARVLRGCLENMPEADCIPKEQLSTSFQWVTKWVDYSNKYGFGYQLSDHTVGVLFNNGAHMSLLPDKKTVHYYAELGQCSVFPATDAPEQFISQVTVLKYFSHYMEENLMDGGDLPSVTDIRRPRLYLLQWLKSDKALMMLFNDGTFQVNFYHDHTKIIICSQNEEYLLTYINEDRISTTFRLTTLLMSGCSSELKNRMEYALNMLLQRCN
Chain of various enzymes (Homo sapiens, UniProt P08581) (P08581 25-1390): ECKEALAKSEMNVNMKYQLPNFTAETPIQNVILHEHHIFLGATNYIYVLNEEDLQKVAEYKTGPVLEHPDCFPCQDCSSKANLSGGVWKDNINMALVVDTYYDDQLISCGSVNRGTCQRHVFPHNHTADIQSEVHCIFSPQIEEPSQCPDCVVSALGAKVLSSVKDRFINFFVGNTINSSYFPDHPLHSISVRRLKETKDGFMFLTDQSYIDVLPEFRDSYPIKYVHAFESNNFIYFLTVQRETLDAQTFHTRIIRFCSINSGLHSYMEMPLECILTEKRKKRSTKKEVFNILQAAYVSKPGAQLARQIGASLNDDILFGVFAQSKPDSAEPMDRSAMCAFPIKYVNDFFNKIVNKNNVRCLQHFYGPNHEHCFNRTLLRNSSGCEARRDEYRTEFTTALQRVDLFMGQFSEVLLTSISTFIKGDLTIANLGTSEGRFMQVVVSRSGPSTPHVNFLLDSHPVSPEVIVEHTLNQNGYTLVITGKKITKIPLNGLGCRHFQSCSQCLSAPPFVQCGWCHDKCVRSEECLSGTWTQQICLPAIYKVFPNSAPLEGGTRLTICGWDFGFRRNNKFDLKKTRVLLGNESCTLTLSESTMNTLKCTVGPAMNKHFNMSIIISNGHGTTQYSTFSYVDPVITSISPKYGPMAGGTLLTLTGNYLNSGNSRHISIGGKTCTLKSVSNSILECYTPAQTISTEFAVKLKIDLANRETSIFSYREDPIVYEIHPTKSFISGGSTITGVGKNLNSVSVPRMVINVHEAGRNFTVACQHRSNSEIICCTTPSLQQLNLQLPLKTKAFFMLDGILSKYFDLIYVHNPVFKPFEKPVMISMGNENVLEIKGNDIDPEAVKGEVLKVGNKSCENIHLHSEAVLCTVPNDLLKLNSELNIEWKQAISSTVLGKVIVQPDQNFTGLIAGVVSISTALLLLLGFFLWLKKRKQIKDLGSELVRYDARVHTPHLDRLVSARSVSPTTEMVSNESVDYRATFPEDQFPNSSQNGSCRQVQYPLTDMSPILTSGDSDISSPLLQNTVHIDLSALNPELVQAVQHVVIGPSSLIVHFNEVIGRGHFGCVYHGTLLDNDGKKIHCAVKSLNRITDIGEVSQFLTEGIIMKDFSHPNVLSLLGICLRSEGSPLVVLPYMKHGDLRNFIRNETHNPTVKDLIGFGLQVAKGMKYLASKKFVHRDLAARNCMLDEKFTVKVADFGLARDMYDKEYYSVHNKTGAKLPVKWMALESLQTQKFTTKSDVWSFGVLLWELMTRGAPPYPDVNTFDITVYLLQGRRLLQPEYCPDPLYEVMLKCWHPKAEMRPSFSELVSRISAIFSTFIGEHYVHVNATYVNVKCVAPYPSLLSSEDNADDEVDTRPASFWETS
Chain of various enzymes (Homo sapiens, UniProt P45983) (P45983 whole entry): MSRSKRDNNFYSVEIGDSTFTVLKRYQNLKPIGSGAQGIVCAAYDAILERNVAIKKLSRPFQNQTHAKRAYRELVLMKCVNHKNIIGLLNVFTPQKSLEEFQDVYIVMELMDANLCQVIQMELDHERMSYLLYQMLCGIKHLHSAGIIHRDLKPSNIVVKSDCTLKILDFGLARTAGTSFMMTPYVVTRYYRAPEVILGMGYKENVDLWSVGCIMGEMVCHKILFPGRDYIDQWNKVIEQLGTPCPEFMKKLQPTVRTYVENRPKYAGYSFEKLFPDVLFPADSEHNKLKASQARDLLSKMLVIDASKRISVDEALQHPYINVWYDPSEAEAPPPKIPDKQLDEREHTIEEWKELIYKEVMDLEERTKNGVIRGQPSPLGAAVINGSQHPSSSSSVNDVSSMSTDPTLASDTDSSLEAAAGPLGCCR
Chain of various enzymes (Homo sapiens, UniProt Q9BWU1) (Q9BWU1 whole entry): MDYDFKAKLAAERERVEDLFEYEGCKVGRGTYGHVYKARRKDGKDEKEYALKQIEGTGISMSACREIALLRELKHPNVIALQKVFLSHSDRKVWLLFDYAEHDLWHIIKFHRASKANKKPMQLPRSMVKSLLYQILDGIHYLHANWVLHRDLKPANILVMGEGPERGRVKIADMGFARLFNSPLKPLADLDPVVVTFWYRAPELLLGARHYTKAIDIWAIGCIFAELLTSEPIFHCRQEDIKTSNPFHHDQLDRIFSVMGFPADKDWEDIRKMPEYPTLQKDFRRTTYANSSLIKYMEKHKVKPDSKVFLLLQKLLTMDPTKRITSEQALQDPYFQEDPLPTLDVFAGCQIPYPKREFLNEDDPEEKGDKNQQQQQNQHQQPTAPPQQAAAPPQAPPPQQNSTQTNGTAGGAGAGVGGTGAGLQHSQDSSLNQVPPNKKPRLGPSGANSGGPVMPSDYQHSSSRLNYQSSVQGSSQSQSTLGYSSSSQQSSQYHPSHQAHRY

Structure (SMILES)	Ambit profiling (various enzymes [1])	Ambit profiling (various enzymes [2])	Ambit profiling (various enzymes [3])	Ambit profiling (various enzymes [4])	Ambit profiling (various enzymes [5]; TYK2(JH1domain-catalytic))	Ambit profiling (various enzymes [5]; TYK2(JH2domain-pseudokinase))	Ambit profiling (various enzymes [6]; EGFR(T790M), 1 uM)	Ambit profiling (various enzymes [7])	Ambit profiling (various enzymes [8])	Ambit profiling (various enzymes [9])	Ambit profiling (various enzymes [6])
CN1Cc2nn(C)cc2-c2cnc3[nH]cc(c3c2)-c2cnn(c2)CCCC1=O [Compound 41, (Z)-31,5-dimethyl-11H,21H,31H-5-aza-2(3,5)-pyrrolo[2,3-b]pyridina-1(4,1),3(4,3)-dipyrazolacyclononaphan-6-one]	90	4.1	30	0.1	2.3	100	41	84	86	5.6	
CN1Cc2nn(C)c(C#N)c2-c2cnc3[nH]cc(c3c2)-c2cn(nc2C(F)(F)F)CCCC1=O [Compound 48, (Z)-31,5-dimethyl-6-oxo-13-(trifluoromethyl)-11H,21H,31H-5-aza-2(3,5)-pyrrolo[2,3-b]pyridina-1(4,1),3(4,3)-dipyrazolacyclononaphane-35-carbonitrile]	100	85	48	20	84	100		100	76	97	80

Source: patent US12157741B2, “Macrocyclic inhibitors of DYRK1A” (DANA-FARBER CANCER INSTITUTE, INC., priority 2018, dated 2024)
